Results: PMC4727773, “Design, Synthesis, and Biological Evaluation of New 2-Phenyl-4H-chromen-4-one Derivatives as Selective Cyclooxygenase-2 Inhibitors” (Scientia Pharmaceutica, 2014)

How the values were obtained:
[1] = target: T1, ovine COX-2 (Ovis aries, UniProt P79208); assay: In vitro ovine COX-2 enzyme inhibition (chemiluminescent enzyme assay kit, Cayman); format: biochemical; details: for Selectivity index (SI): In vitro COX-2 selectivity index (COX-1 IC50/COX-2 IC50); for IC50: ovine COX-1/COX-2 assay kit, means of two determinations, deviation < 10% of the mean
T1 construct: purchased Cayman Chemical, Ann Arbor, MI, USA
T1 sequence (P79208 17-603): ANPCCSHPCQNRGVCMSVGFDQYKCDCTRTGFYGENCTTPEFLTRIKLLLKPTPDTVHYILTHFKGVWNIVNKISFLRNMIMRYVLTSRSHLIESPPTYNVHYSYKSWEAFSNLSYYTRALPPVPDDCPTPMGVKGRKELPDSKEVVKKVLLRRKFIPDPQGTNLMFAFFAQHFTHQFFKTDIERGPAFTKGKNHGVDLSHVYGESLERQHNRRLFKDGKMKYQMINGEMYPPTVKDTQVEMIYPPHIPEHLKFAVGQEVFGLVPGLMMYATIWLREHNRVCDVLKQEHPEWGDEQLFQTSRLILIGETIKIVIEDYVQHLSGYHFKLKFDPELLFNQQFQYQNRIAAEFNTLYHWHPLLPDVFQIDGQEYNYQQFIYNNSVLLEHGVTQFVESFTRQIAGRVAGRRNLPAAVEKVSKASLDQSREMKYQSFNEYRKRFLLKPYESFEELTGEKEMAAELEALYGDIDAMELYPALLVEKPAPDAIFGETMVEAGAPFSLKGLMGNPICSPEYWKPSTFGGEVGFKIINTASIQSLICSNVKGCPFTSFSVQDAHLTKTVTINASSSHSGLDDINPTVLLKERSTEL
Protocol: (§1) The ability of the test compounds listed in Table 1 to inhibit ovine COX-1 and COX-2 (IC50 value, μM) was determined using the chemiluminescent enzyme assay kit (Cayman Chemical, Ann Arbor, MI, USA) according to our previously reported method.

[2] = target: T2, ovine COX-1 (Ovis aries, UniProt P05979); assay: In vitro ovine COX-1 enzyme inhibition (chemiluminescent enzyme assay kit, Cayman); format: biochemical; details: ovine COX-1/COX-2 assay kit; means of two determinations, deviation < 10% of the mean
T2 construct: purchased Cayman Chemical, Ann Arbor, MI, USA
T2 sequence (P05979 25-600): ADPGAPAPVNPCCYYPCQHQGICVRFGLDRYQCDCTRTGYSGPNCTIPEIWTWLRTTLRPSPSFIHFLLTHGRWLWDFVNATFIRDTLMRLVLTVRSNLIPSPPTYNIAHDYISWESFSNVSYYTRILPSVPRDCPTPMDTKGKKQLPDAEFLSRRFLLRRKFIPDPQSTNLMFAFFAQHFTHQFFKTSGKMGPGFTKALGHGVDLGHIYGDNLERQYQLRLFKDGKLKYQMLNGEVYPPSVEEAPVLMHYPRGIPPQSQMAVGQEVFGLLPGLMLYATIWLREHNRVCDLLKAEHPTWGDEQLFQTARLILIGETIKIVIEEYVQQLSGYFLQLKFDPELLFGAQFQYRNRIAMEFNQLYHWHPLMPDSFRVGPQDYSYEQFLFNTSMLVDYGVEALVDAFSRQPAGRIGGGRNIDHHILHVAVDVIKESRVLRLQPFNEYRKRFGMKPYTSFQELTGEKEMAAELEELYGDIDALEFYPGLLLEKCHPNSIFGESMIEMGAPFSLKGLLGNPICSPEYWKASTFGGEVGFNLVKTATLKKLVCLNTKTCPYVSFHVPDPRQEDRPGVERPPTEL
Protocol: as §1

Selectivity index (SI) [1] | IC50 [1] [µM] | melting point [°C] | IC50 [2] [µM] | Structure (SMILES)
126.5 | 0.1 | 92 to 93 | 12.7 | COc1c(-c2ccc(S(C)(=O)=O)cc2)oc2ccccc2c1=O [Compound 5a, 3-Methoxy-2-[4-(methylsulfonyl)phenyl]-4H-chromen-4-one]
149.1 | 0.09 | 137 to 138 | 13.4 | CCOc1c(-c2ccc(S(C)(=O)=O)cc2)oc2ccccc2c1=O [Compound 5b, 3-Ethoxy-2-[4-(methylsulfonyl)phenyl]-4H-chromen-4-one]
173.1 | 0.08 | 116 to 118 | 13.8 | C=CCOc1c(-c2ccc(S(C)(=O)=O)cc2)oc2ccccc2c1=O [Compound 5c, 3-(Allyloxy)-2-[4-(methylsulfonyl)phenyl]-4H-chromen-4-one]
287.1 | 0.07 | 140 to 142 | 20.1 | CS(=O)(=O)c1ccc(-c2oc3ccccc3c(=O)c2OCc2ccccc2)cc1 [Compound 5d, 3-(Benzyloxy)-2-[4-(methylsulfonyl)phenyl]-4H-chromen-4-one]

The next lines start with the compound.

Structure (SMILES) | Selectivity index (SI) [1] | IC50 [1] [µM] | melting point [°C] | IC50 [2] [µM]
CS(=O)(=O)c1ccc(-c2cc(=O)c3ccccc3o2)cc1 [Compound 3, 2-[4-(Methylsulfonyl)phenyl]-4H-chromen-4-one] | 98.2 | 0.11 | 187 | 10.8
CS(=O)(=O)c1ccc(-c2oc3ccccc3c(=O)c2O)cc1 [Compound 4, 3-Hydroxy-2-[4-(methylsulfonyl)phenyl]-4H-chromen-4-one] | 75.3 | 0.13 | 198 to 199 | 9.79
CC(=O)Oc1c(-c2ccc(S(C)(=O)=O)cc2)oc2ccccc2c1=O [Compound 6, 2-[4-(Methylsulfonyl)phenyl]-4-oxo-4H-chromen-3-yl acetate] | 195.6 | 0.08 | 175 | 15.6
